Measured values from PubChem BioAssay (NCI).
Several values for one entry are separate records, joined by “and”; a condition that tells them apart may be missing. Identical values can stand only once.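 Protocol summary: plate cells (96-well), add compound at 5 concentrations, incubate 48 h, interpolate endpoints linearly. GI50 is the concentration that inhibits growth by half. The concentration for full growth arrest is given as TGI.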

Experiments:
Test in all cases: NCI tumour cell line growth inhibition, 48 h
786-0 renal = tested on: 786-0 renal
A498 renal = tested on: A498 renal
ACHN renal = tested on: ACHN renal
CCRF-CEM leukemia = tested on: CCRF-CEM leukemia
HOP-62 NSCLC = tested on: HOP-62 NSCLC
K-562 leukemia = tested on: K-562 leukemia
KM12 colon = tested on: KM12 colon
MOLT-4 leukemia = tested on: MOLT-4 leukemia
NCI-H460 lung = tested on: NCI-H460 lung
RPMI-8226 leukemia = tested on: RPMI-8226 leukemia

Row | SMILES | TGI (786-0 renal) | TGI (A498 renal) | TGI (ACHN renal) | TGI (CCRF-CEM leukemia) | TGI (HOP-62 NSCLC) | TGI (K-562 leukemia) | TGI (KM12 colon) | TGI (MOLT-4 leukemia) | TGI (NCI-H460 lung) | TGI (RPMI-8226 leukemia) | GI50 (786-0 renal) | GI50 (A498 renal) | GI50 (ACHN renal) | GI50 (CCRF-CEM leukemia) | GI50 (HOP-62 NSCLC) | GI50 (K-562 leukemia) | GI50 (KM12 colon) | GI50 (MOLT-4 leukemia) | GI50 (NCI-H460 lung) | GI50 (RPMI-8226 leukemia)
1 | CCCCCCCCCCCCCCCCc1c(C(=O)OC)[nH]c(=S)[nH]c1=O | > 50 µM | > 50 µM | > 50 µM | > 50 µM | > 50 µM | > 50 µM | > 50 µM | > 50 µM | > 50 µM | > 50 µM |  |  |  |  |  |  |  |  |  | 
2 | N#Cc1cc(-c2ccccc2)[nH]c1-c1nccc2ccccc12 | > 100 µM | > 100 µM | > 100 µM | > 100 µM | > 100 µM | > 100 µM | > 100 µM | 52.2 µM | > 100 µM | 53.2 µM | 26.9 µM | 26.3 µM | 18.5 µM | 14 µM | 29 µM | 6.04 µM | 20.7 µM | 7.15 µM | 18.1 µM | 4.35 µM
3 | O=S(=O)(c1ccc2c(c1)C(=NO)c1cc(S(=O)(=O)N3CCCCC3)ccc1-2)N1CCCCC1 | 0.499 µM and 0.342 µM | > 1 µM and 37.5 µM | 0.389 µM and 0.319 µM | 0.338 µM | 0.36 µM and 0.105 µM | 0.452 µM and 0.785 µM | > 1 µM and 0.356 µM | 0.433 µM and 0.832 µM | 0.465 µM and 0.268 µM | 0.424 µM and 0.452 µM | 0.212 µM and 0.186 µM | > 1 µM and 8.88 µM | 0.188 µM and 0.163 µM | 0.0727 µM | 0.168 µM and 0.0463 µM | 0.211 µM and 0.216 µM | 0.508 µM and 0.184 µM | 0.204 µM and 0.215 µM | 0.214 µM and 0.106 µM | 0.189 µM and 0.126 µM
4 | COc1ccc(C2=C(Br)C(=O)OC2)cc1Cl | > 100 µM | > 80.7 µM | 39.9 µM | > 68 µM | > 100 µM | > 86.2 µM | > 84.4 µM | > 100 µM | > 100 µM | 48.5 µM | 34 µM | 27.9 µM | 19.3 µM | 21.9 µM | 44.4 µM | 33.7 µM | 23.6 µM | 29.5 µM | 33.2 µM | 17.3 µM
5 | NC(=O)Cc1ccccc1Oc1nccc(-c2c(-c3ccc(F)cc3)ncn2C2CCNCC2)n1 | > 25 µM | > 25 µM | > 25 µM | > 25 µM | > 25 µM | > 25 µM | > 25 µM | > 25 µM | > 25 µM | > 25 µM | > 25 µM | > 25 µM | > 25 µM | > 25 µM | > 25 µM | > 25 µM | > 25 µM | > 25 µM | > 25 µM | > 25 µM
6 | COc1cc(-c2nn(C)nc2-c2cc3ccccc3s2)cc(OC)c1OC | > 100 µM | 7.63 µM | > 100 µM | > 100 µM | > 100 µM | > 100 µM | > 100 µM | > 100 µM | > 100 µM | > 100 µM | 0.312 µM | 0.0413 µM | 0.293 µM | 0.22 µM | 0.553 µM | 0.0428 µM | 0.0549 µM | 0.333 µM | 0.0699 µM | 0.362 µM
7 | COC(=O)C1=C(C(=O)Nc2cccnc2)C2OC1(C(Cc1ccccc1)Oc1ccccc1)C1OC21 (stereo not drawn) | 3.33 µM | 23.8 µM | 3 µM | 2.14 µM | 26.1 µM | 6.68 µM | 33.3 µM | 5.2 µM | 34.1 µM | 6 µM | 1.69 µM | 11.2 µM | 1.49 µM | 0.36 µM | 13.2 µM | 2.03 µM | 14.6 µM | 1.75 µM | 16.4 µM | 2.14 µM
8 | CC(C)[C@@H]1NC(=O)[C@]2(C)CSC(=N2)c2csc(n2)CNC(=O)C[C@@H](/C=C/CCS)OC1=O | > 100 µM | 0.114 µM | 9.12 µM | > 100 µM | > 29.1 µM | > 100 µM | > 32.4 µM | > 100 µM | > 100 µM | 6.62 µM | 0.454 µM | 0.0156 µM | 1.75 µM | 0.276 µM | 0.0453 µM | 0.273 µM | 0.0526 µM | 0.171 µM | 0.0332 µM | 0.563 µM
9 | CCCCCCCCCCCCCCCCCC(=O)[O][Sn]([CH2]CCC)([CH2]CCC)[CH2]CCC | 0.305 µM | 0.232 µM | 0.334 µM |  | 0.332 µM | > 100 µM | 0.266 µM |  | 0.251 µM | 0.602 µM | 0.152 µM | 0.0904 µM | 0.163 µM | 0.17 µM | 0.158 µM | 0.142 µM | 0.124 µM | 0.237 µM | 0.109 µM | 0.139 µM
10 | Cc1c(NC(=O)CCCl)c(=O)oc2c(C)c3occc(=O)c3cc12 | > 100 µM | 76.2 µM | > 100 µM | > 100 µM | > 100 µM | > 100 µM | > 100 µM | > 100 µM | > 100 µM | > 100 µM |  |  |  |  |  |  |  |  |  | 
11 | O=C1OCC2=C1C(c1cccc([N+](=O)[O-])c1)c1cc3c(cc1N2CCO)CCC3 (stereo not drawn) | 16.8 µM | 0.376 µM | > 50 µM | > 50 µM | > 50 µM | > 50 µM | 19.8 µM | 43.3 µM | 14.6 µM | > 39 µM | 0.0822 µM | 0.0684 µM | 0.398 µM | 0.216 µM | 0.199 µM | 0.0666 µM | 0.0928 µM | 0.254 µM | 0.172 µM | 0.25 µM
12 | COc1ccc(S(=O)(=O)Nc2cc(/C=C\c3cc(OC)c(OC)c(OC)c3)cc(OC)c2OC)cc1OC | > 100 µM | 0.906 µM | > 100 µM | > 100 µM | > 100 µM | > 100 µM | > 100 µM | > 100 µM | > 100 µM | > 100 µM | 0.444 µM | 0.154 µM | 0.928 µM | 0.349 µM | 17.6 µM | 0.425 µM | 0.639 µM | 0.702 µM | 0.399 µM | 0.567 µM
13 | Clc1cccc(Cn2cc(Cc3cn(Cc4cccc(Cl)c4)c4ccccc34)c3ccccc32)c1 | > 100 µM | > 100 µM | > 100 µM | > 100 µM | > 100 µM | > 100 µM | > 100 µM | > 100 µM | > 100 µM | > 100 µM | > 100 µM | > 100 µM | > 100 µM | > 100 µM | > 100 µM | > 100 µM | > 100 µM | > 100 µM | 46.5 µM | > 100 µM
14 | COc1ccccc1/C=C1\CCC(CN(C)C)C1=O (stereo not drawn) | 5.08 µM | 34.1 µM | 15.2 µM | 8.47 µM | 36.4 µM | 11.3 µM | 12.4 µM | 17.5 µM | 44.5 µM | 21.1 µM |  |  |  |  |  |  |  |  |  | 
15 | Nc1cccc(-c2nc3sccn3c2-c2ccnc(NCCCNS(=O)(=O)c3ccc(C(F)(F)F)cc3)n2)c1 | > 100 µM | 49.5 µM | 27.1 µM | 14.4 µM | 24.3 µM | > 100 µM | 13.8 µM | 10.4 µM | 58.6 µM | 6.54 µM | 5.74 µM | 3.35 µM | 3.34 µM | 3.06 µM | 5.16 µM | 2.77 µM | 3.6 µM | 2.8 µM | 4.58 µM | 2.45 µM
16 | CCN1CCN(CCNc2nccc(-c3c(-c4cccc(O)c4)nc4sccn34)n2)S1(=O)=O | 32.5 µM and > 100 µM | 32.5 µM and 25.6 µM | 32 µM and > 100 µM | 32.5 µM and 46.1 µM | > 100 µM | 32.5 µM and > 100 µM | 32.5 µM and > 100 µM | 32.5 µM and 57.6 µM | 32.5 µM and 78.3 µM | 20.7 µM and 40.8 µM | 22.1 µM and 7.86 µM | 16.6 µM and 3.97 µM | 6.72 µM and 4.13 µM | 8.83 µM and 5.52 µM | > 32.5 µM and 26.4 µM | 11.9 µM and 11.4 µM | 11 µM and 11.2 µM | 19.2 µM and 21.7 µM | 11.8 µM and 5.86 µM | 6.37 µM and 16.3 µM
17 | Nc1ccccc1S(=O)c1ccccc1 (stereo not drawn) | > 100 µM | > 100 µM | > 100 µM | > 100 µM | > 100 µM | > 100 µM | > 100 µM | > 100 µM | > 100 µM | > 100 µM |  |  |  |  |  |  |  |  |  | 
18 | c1ccc2c(c1)nnn1c3cnccc3nc21 | > 100 µM | > 100 µM | > 100 µM | 44.3 µM | > 100 µM | 69.6 µM | 64.8 µM | 54.9 µM | 37.4 µM | 58.8 µM |  |  |  |  |  |  |  |  |  | 
19 | CC1C(=O)CCC1C(Sc1ccccc1)(Sc1ccccc1)Sc1ccccc1 (stereo not drawn) | > 100 µM | > 100 µM | > 100 µM | 22.4 µM | > 100 µM | 80.5 µM | > 100 µM | 37.9 µM | > 100 µM | 40.6 µM |  |  |  |  |  |  |  |  |  | 
20 | C=C1C(=O)O[C@H]2[C@H]1CC/C(COC(=O)NCc1c[nH]c3ccc(OC)cc13)=C\CC[C@@]1(C)O[C@@H]21 | 1.8 µM | 25.8 µM | 2.01 µM | 1.07 µM | 24.1 µM | 11.2 µM | 14 µM | 4.74 µM | 16.7 µM | 1.52 µM | 0.445 µM | 13 µM | 0.729 µM | 0.152 µM | 10.6 µM | 0.279 µM | 3.54 µM | 1.32 µM | 3.76 µM | 0.266 µM
